Data taken from article PMC6895180 (Nature Communications, 2019).
Several values for one entry are separate records, joined by “and”; a condition that tells them apart may be missing. Equal values may be shown once. Read-outs that look alike come from different tables or passages of the source.

Experiments:
T. b. brucei Squib 427 = assay: Mouse model of acute HAT
Experimental: Drinking water and food were available ad libitum throughout the experiment. […] The reference drug suramin was formulated in phospahte-buffered saline (PBS) at 2.5 mg mL^−1 and administered s.i.d. i.p. for 5 days at 10 mg kg^−1 (n = 3). All treatments were initiated 30 min prior to the i.p. infection. […] Parasitaemia was determined by microscopic evaluation of tail vein blood samples at 4, 7, 10, 14 and 21 dpi (pre-set endpoint). As a test of cure, blood samples (250 µL) were collected from treated mice at 21 dpi and were sub-inoculated i.p. in naive Swiss mice (n = 3), followed by monitoring of parasitaemia as follow-up.

[1] = target: Lister 427WT T. b. brucei; assay: Adenosine deaminase susceptibility (drug sensitivity with/without 2 µM deoxycoformycin); format: cell-based, Trypanosoma brucei brucei; settings: for EC50: Trypanosoma brucei, Lister 427WT, mean ± SEM, n=3
[2] = test system: AT1-KO T. b. brucei strain (derived from BS221); assay: Susceptibility assay, TbAT1-KO (derived from BS221); format: cell-based, Trypanosoma brucei brucei
Experimental: (§1) Susceptibility assays with NY-SM[51], BS221[48] and TbAT1-KO[48] (derived from BS221) cells were performed using 10 concentrations of a 4-fold compound dilution series starting at 64 µM. Parasites were seeded at 4 × 10^3 parasites per well and exposed to drug compound for 72 h, after which resazurin (final concentration of 10 µg mL^−1) was added to the plates. Fluorescence intensities were determined after 6 h.

[3] = test system: T. brucei Lister 427 cells; assay: Nucleotide pool analysis (HPLC); format: cell-based, Trypanosoma brucei; settings: 25 μM, versus untreated trypanosomes
Description: (1 picture or pasted object on this page, not shown here)
The following primers were used: […]

T. b. brucei BS221 = assay: Susceptibility assay, BS221 cells; format: cell-based, Trypanosoma brucei brucei; settings: for IC50: single determinations
Experimental: as §1

[4] = Metabolic stability, rat liver microsomes (phase I and II)
Experimental: Mouse, rat, and pooled human liver microsomes were purchased from a commercial source (Corning) and stored at -80 °C. NADPH generating system solutions A and B and UGT reaction mix solutions A and B (Corning) were kept at -20°C. The test compound and the reference compounds diclofenac (MW […]
microsomal stability assay was carried out based on the BD Biosciences Guidelines for Use (TF000017 Rev1.0) with minor adaptations. Metabolic stability of the compounds was studied through the CYP450 superfamily (phase I metabolism) by fortification with reduced nicotinamide adenine dinucleotide phosphate (NADPH) and through uridine glucuronosyl-transferase (UGT) enzymes (phase II metabolism) by fortification with uridine diphosphate glucuronic acid (UDPGA). For the CYP450 and other NADPH dependent enzymes, both compounds were incubated at 5 µM together with 0.5 mg mL-1 liver microsomes in potassium phosphate buffer in a reaction started by the addition of 1 mM NADPH […]
At these time points, 20 µL was withdrawn from the reaction mixture and 80 µL cold acetonitrile (ACN) containing the internal standard tolbutamide, was added to inactivate the enzymes and precipitate the proteins. The mixture was vortexed for 30 s and centrifuged at 4 °C for 5 min at 15,000 rpm. The supernatant was stored at -80°C until analysis. For the UGT enzymes, both compounds were incubated at 5 µM together with 0.5 mg mL-1 liver microsomes in a reaction started by the addition of 2 mM UDPGA cofactor. The corresponding loss of parent compound was determined using liquid chromatography (UPLC) (Waters AquityTM) coupled with tandem quadrupole mass spectrometry (MS²) (Waters XevoTM), equipped with an electrospray ionization (ESI) interface and operated in multiple reaction monitoring (MRM) mode. […]

[5] = absence of deoxycoformycin, read-out: T. b. brucei EC50, -Dcf
[6] = presence of 2 µM deoxycoformycin, read-out: T. b. brucei EC50, +Dcf

SMILES: Nc1ncnc2c1c(Br)cn2[C@@H]1O[C@H](CO)C[C@H]1O [Compound 10, 3’-deoxy-7-Br-tubercidin]
- tolerability in mice (T. b. brucei Squib 427; 6.25 mg kg^−1 orally): not well tolerated
- effect of adenosine deaminase inhibition (2’-deoxycoformycin) on EC50 [1]: not significantly affected
- EC50 [1, 5]: 2 ± 0.1 nM
- EC50 [1, 6]: 1.9 ± 0.2 nM

SMILES: Nc1ncnc2c1ccn2[C@@H]1O[C@H](CO)C[C@H]1O [Compound 9, 3’-deoxytubercidin]
- Inhibition (%) ([2]; TbAT1KO, 0.000976563 µM): 0% and 2%
- Inhibition (%) ([2]; TbAT1KO, 0.00390625 µM): 5% and 10% and 0%
- Inhibition (%) ([2]; TbAT1KO, 0.25 µM): 89% and 94% and 60% and 62%
- Inhibition (%) ([2]; TbAT1KO, 64 µM): 100%
- inhibition at 1 µM ([2]; Trypanosoma brucei, TbAT1KO, 1 µM): 98%
- inhibition at 4 µM ([2]; Trypanosoma brucei, TbAT1KO, 4 µM): 99%
- inhibition at 16 µM ([2]; Trypanosoma brucei, TbAT1KO, 16 µM): 99%
- inhibition at 64 µM ([2]; Trypanosoma brucei, TbAT1KO, 64 µM): 99%
- EC50 ([2]; Trypanosoma brucei, read-out: EC50 upon AT1-KO): 150 ± 30 nM
- effect on intracellular purine and pyrimidine nucleotide pools [3]: did not cause any change in the balance or total quantity of intracellular purine and pyrimidine nucleotides
- Inhibition (%) (T. b. brucei BS221; BS221, 0.015625 µM): 98% and 95%
- Inhibition (%) (T. b. brucei BS221; BS221, 0.25 µM): 98%
- Inhibition (%) (T. b. brucei BS221; BS221, 1 µM): 98%
- Inhibition (%) (T. b. brucei BS221; BS221, 4 µM): 98%
- Inhibition (%) (T. b. brucei BS221; BS221, 16 µM): 98%
- inhibition at 0.000244141 µM (T. b. brucei BS221; Trypanosoma brucei, BS221, 0.000244141 µM): 0%
- inhibition at 0.000976563 µM (T. b. brucei BS221; Trypanosoma brucei, BS221, 0.000976563 µM): 0%
- inhibition at 0.015625 µM (T. b. brucei BS221; Trypanosoma brucei, BS221, 0.015625 µM): 97%
- inhibition at 0.0625 µM (T. b. brucei BS221; Trypanosoma brucei, BS221, 0.0625 µM): 99%
- inhibition at 0.25 µM (T. b. brucei BS221; Trypanosoma brucei, BS221, 0.25 µM): 99%
- inhibition at 1 µM (T. b. brucei BS221; Trypanosoma brucei, BS221, 1 µM): 99%
- inhibition at 4 µM (T. b. brucei BS221; Trypanosoma brucei, BS221, 4 µM): 100%
- inhibition at 16 µM (T. b. brucei BS221; Trypanosoma brucei, BS221, 16 µM): 99%
- inhibition at 64 µM (T. b. brucei BS221; Trypanosoma brucei, BS221, 64 µM): 99%
- IC50 (T. b. brucei BS221; Trypanosoma brucei): 6.8 nM
- EC50 (T. b. brucei BS221; Trypanosoma brucei, BS221, mean and SEM, n = 2, read-out: EC50, parental line of AT1-KO): 6.4 ± 0.4 nM
- IC50 (T. b. brucei BS221): 6.1 nM and 5.4 nM and 7.3 nM
- parasitaemia, individual mice (T. b. brucei Squib 427; 6.25 mg/kg bid PO, 4 dpi): 0
- parasitaemia, individual mice (T. b. brucei Squib 427; 6.25 mg/kg bid PO, 7 dpi): 0
- parasitaemia, individual mice (T. b. brucei Squib 427; 6.25 mg/kg bid PO, 10 dpi): 0
- parasitaemia, individual mice (T. b. brucei Squib 427; 6.25 mg/kg bid PO, 14 dpi): 0
- parasitaemia, individual mice (T. b. brucei Squib 427; 6.25 mg/kg bid PO, 21 dpi): 0
- parasitaemia, individual mice (T. b. brucei Squib 427; 12.5 mg/kg bid PO, 4 dpi): 0
- parasitaemia, individual mice (T. b. brucei Squib 427; 12.5 mg/kg bid PO, 7 dpi): 0
- parasitaemia, individual mice (T. b. brucei Squib 427; 12.5 mg/kg bid PO, 10 dpi): 0
- parasitaemia, individual mice (T. b. brucei Squib 427; 12.5 mg/kg bid PO, 14 dpi): 0
- parasitaemia, individual mice (T. b. brucei Squib 427; 12.5 mg/kg bid PO, 21 dpi): 0
- parasitaemia, individual mice (T. b. brucei Squib 427; 25 mg/kg bid PO, 4 dpi): 0
- parasitaemia, individual mice (T. b. brucei Squib 427; 25 mg/kg bid PO, 7 dpi): 0
- parasitaemia, individual mice (T. b. brucei Squib 427; 25 mg/kg bid PO, 10 dpi): 0
- parasitaemia, individual mice (T. b. brucei Squib 427; 25 mg/kg bid PO, 14 dpi): 0
- parasitaemia, individual mice (T. b. brucei Squib 427; 25 mg/kg bid PO, 21 dpi): 0
- tolerability in mice (T. b. brucei Squib 427; all treatment schedules, no adverse reactions, no weight loss): well tolerated
- test of cure: blood of surviving animals at 21 dpi inoculated in treatment-naïve mice (T. b. brucei Squib 427; follow-up of parasitaemia): absence of parasitaemia
- blood parasitaemia and survival at 21 dpi (T. b. brucei Squib 427; i.p. 10 mg kg^−1 s.i.d. for 5 days): negative blood parasitaemia and survival of all treated mice
- blood parasitaemia and survival at 21 dpi (T. b. brucei Squib 427; oral 6.25 mg kg^−1 b.i.d. for 5 days): negative blood parasitaemia and survival of all treated mice
- blood parasitaemia and survival at 21 dpi (T. b. brucei Squib 427; oral 12.5 mg kg^−1 b.i.d. for 5 days): negative blood parasitaemia and survival of all treated mice
- blood parasitaemia and survival at 21 dpi (T. b. brucei Squib 427; oral 25 mg kg^−1 b.i.d. for 5 days): negative blood parasitaemia and survival of all treated mice
- % analogue remaining, EXP 1 / EXP 2 ([4]; microsomes, 0 min, 5 µM): 100%
- % analogue remaining, Mean ([4]; microsomes, 0 min, 5 µM): 100%
- metabolic stability ([4]; s9, 0.5 h): metabolically stable
- effect of adenosine deaminase inhibition (2’-deoxycoformycin) on EC50 [1]: not significantly affected
- EC50 [1, 5]: 37 ± 3 nM
- EC50 [1, 6]: 49 ± 9 nM
